Literature values, collected in patent publication US20120277693A1, “METHOD AND APPARATUS FOR IMPROVING THE APPEARANCE OF NAILS AFFECTED BY ONYCHOMYCOSIS THROUGH THE TOPICAL APPLICATION OF AN AQUEOUS SOLUTION CONTAINING BORIC ACID AND CAMPHOR OR OTHER TERPENES” (priority 2009, published 2012).

Experiments:
[1] = in boiling water; believed to be approximately; also printed as 280 g/L or 4.53 mole/L
fungal nail infection = details: topical lacquer painted daily on infected nails

Row | SMILES | boric acid concentration, supersaturated [1] | patients in whom the treatment is effective (fungal nail infection)
1 | OB(O)O [boric acid] | approximately 28% | 
2 | Cc1cc(C2CCCCC2)n(O)c(=O)c1 [ciclopirox] |  | less than 10%
